Laboratory results from patent publication US4243681A, “Alkylthiophenoxypropanolamines and pharmaceutical compositions and uses thereof” (priority 1979, dated 1981).
Structures can show the parent of a compound that is named as a salt.

Assays:
perfused dog hind limb = test: Peripheral vasodilator activity, perfused dog hind limb (anesthetized dog); format: in vivo; details: for pressure reduction (findings, range over compounds): infusion dose 1.0 mg./min.
Protocol: Test Method. Mongrol dogs of either sex weighing between 11 and 16 kg., each, were anesthetized with pentobarbital (30 mg./kg.) administered intravenously. The left brachial vein was cannulated and pentobarbital infused continuously throughout the experiment at a rate of 5 mg./kg./hr. A tracheotomy was performed and dogs ventilated mechanically with room air at a rate of 18 strokes/min. and a volume equivalent to 20 ml./kg. The vagi were sectioned bilaterally in the mid-cervical region of the neck. The right brachial vein and artery were cannulated to inject drugs and to monitor blood pressure via a Statham pressure transducer, respectively. All measurements were recorded on a Beckman-Offner dynograph. The abdominal aorta was exposed through midline incision and a loose ligature placed around the aorta distal to the left renal artery. The right (donor) and left (recipient) femoral arteries were exposed for cannulation and subsequent hind-limb perfursion. Following intravenous administration of heparin (5 mg/kg.) and gallamine triethiodide (2 mg./kg.), the right femoral artery was cannulated and the tip of the catheter advanced into the abdominal aorta to the level of the renal arteries. The left femoral artery was cannulated and the hind-limb perfused using a Harvard Perfusion pump. The ligature previously placed around the aorta was subsequently tied to minimize collateral circulation. […] Perfusion pressure, measured at a point distal to the perfusion pump was set equal to 150 mm Hg. by adjusting pump speed. Blood flow to the limb was determined volumetrically at the conclusion of the experiment. The test agent was administered by infusion at a rate of from 0.1-1.0 mg./min. for a six-minute period and maximum reduction in pressure determined. One to three animals were employed per test agent. […] This protocol precludes effects resulting from animal variation thus permitting a direct side-by-side comparison of vasodilating activity.

adrenergic beta-receptor = target: T1, adrenergic beta-receptor (Cavia porcellus, UniProt Q8K4Z4); test: Beta-adrenergic blocking activity in the isolated guinea pig trachea (isoproterenol); format: cell-based; details: for Beta-Adrenergic Blocking Potency: potency relative to propanol (equals one), isoproterenol 0.1 mcg./ml.
T1 construct: Tracheas excised from adult guinea pigs; from tissue; host or cells: guinea pig trachea (spirally cut segments)
Protocol: Test Method. […] The lower end of a tracheal segment is fixed to a stationary glass rod and the upper end is threaded to an isometric tension transducer. Changes in the spontaneous tonus of the tracheal smooth muscle are monitored via the transducer and recorded continuously on an electronic recorder. Adrenergic beta-receptor blocking activity is determined by the ability of a test agent to inhibit the response of the isolated tissue to the adrenergic beta-stimulant "isoproterenol" at a concentration of 0.1 mcg./ml. bath fluid. The tissues are exposed to the test agent solution for a 15-min. interval prior to the addition of isoproterenol to the bath fluid. Beta-receptor blocking potency of a test drug is ascertained from concentration-response relationships wherein the response is expressed as a percent inhibition of isoproterenol-induced tissue response. […] Each drug solution is added to the tissue bathing medium at a constant volume of 0.2 ml./ml. of bath fluid and only one test drug concentration is employed for an individual tissue segment. Potency of the test agent relative to that of the beta-adrenergic blocking agent "propanolol" as a reference standard is assessed by comparing the IC50 values.

[1] = system: human platelet-rich plasma; test: Inhibition of platelet aggregation in vitro (ADP or collagen induced; antithrombogenic activity); format: cell-based; details: for ED50 ADP (inhibition of platelet aggregation): aggregation induced by 1 mcg. ADP; for ED50 Coll (inhibition of platelet aggregation): minimal amount of collagen producing maximal aggregation
Protocol: Test Method. A method similar to that described in Born, Nature 194, 927 (1962) and O'Brien, J. Clinical Pathology 15, 446 (1962). This test comprises a nephelometric method in which the change in turbidity of a specimen of human platelet-rich plasma is measured on causation of platelet aggregation by addition of adenosine diphosphate (ADP) or collagen as the thrombogenic inducing agent. An increase in transmittance light occurs when the thrombogenic agent is added to the specimen of platelet-rich plasm due to clumping of platelets. Efficacy of the test compound is determined by ability to prevent the clumping and concommitant increase in transmittance. Various concentrations of the test agent are tested and that concentration causing a 50% reduction in the thrombogenic response is determined from a concentration-response curve.

rabbit thoracic aorta = test: Isolated rabbit thoracic aorta, antispasmodic activity vs. potassium chloride; format: cell-based, rabbit (New Zealand White); details: for Antispasmodic Potency: potency relative to papaverine (equals one), from pA2 vs. potassium chloride; for antispasmodic potency relative to prior art compounds A and B / antispasmodic activity (in words): potassium chloride-induced spasms
Protocol: (§1) Test Method. Antispasmodic activity was assessed in vitro by determining the effect of the test substance on induced contraction of arterial smooth muscle as follows. Adult, male, New Zealand White rabbits (body weight 2.5-4 kg.) were used. Each rabbit was killed by i.v. air injection. The thorax was opened and the descending thoracic aorta removed and placed in Kreb's-bicarbonate solution. Extraneous tissue was removed and the aorta was cut spirally along its entire length. Four spiral segments, each approximately 2 cm. in length (unstretched), were obtained from each thoracic aorta. […] The bath medium surrounding the aortic spiral (Kreb's-bicarbonate solution) was maintained at 37.5°C. and constantly aerated with 95% O2 :5% CO2. Activity of the aortic smooth muscle was recorded on an electronic polygraph via its connection to the tension transducer. After an equilibration period of 60 min., a cumulative dose-response curve was obtained to an agonist (e.g. potassium chloride or norepinephrine) and the tissue then washed. Seventy-five min. later, a second cumulative dose-response curve to the agonist was obtained and the tissue washed again. Sixty min. later, a test drug solution was added to the tissue bath fluid and, after 15 min., drug exposure and, without washing, a third and final agonist-response curve was obtained. All additions to the bath fluid were 0.1 ml. volumes of aqueous solutions.

alpha-adrenergic = test: Isolated rabbit thoracic aorta, antispasmodic (anti-alpha-adrenergic) activity vs. norepinephrine; format: cell-based, rabbit (New Zealand White); details: norepinephrine as agonist
Protocol: as §1, with “solutions. […] Selective activity against norepinephrine-induced spasms is indicative of alpha-adrenergic blocking (i.e. antispasmodic) activity. […] Phentolamine is an alpha-adrenergic blocking agent and a standard reference in the art. […] This experiment illustrates that the instant compounds are non-anti-alpha-adrenergic antispasmodic agents in that they have a substantial direct smooth muscle relaxant effect (as shown in Example 34) relatively uncomplicated by any significant selective alpha-adrenergic blocking effect.” for “solutions.”

[2] = infusion rate 0.3 mg./min., side-by-side comparison in same animals
[3] = infusion rate 1.0 mg./min., side-by-side comparison in same animals

T1 sequence (Q8K4Z4 whole entry): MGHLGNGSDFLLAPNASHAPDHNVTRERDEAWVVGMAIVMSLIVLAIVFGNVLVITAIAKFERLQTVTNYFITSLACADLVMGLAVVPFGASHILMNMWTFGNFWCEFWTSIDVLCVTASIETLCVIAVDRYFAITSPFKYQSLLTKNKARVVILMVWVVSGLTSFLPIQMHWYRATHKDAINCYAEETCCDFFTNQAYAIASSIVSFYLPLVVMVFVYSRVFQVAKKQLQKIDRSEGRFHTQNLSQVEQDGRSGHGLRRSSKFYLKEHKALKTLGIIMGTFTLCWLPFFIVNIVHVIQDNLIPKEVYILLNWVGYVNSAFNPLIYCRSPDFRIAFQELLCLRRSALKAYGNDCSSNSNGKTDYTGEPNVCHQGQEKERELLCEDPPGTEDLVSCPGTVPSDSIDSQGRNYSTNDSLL

| Beta-Adrenergic Blocking Potency (adrenergic beta-receptor) | Structure (SMILES) | Pressure Decrease (perfused dog hind limb; infusion rate 0.3 mg./min.) | Pressure Decrease (perfused dog hind limb; infusion rate 1.0 mg./min.) | ED50 ADP (inhibition of platelet aggregation) [1] | ED50 Coll (inhibition of platelet aggregation) [1] | Antispasmodic Potency (rabbit thoracic aorta) | antispasmodic potency relative to prior art compounds A and B (rabbit thoracic aorta) | anti-alpha-adrenergic activity relative to phentolamine (alpha-adrenergic) | pressure reduction (findings, range over compounds) (perfused dog hind limb) | Pressure Decrease (perfused dog hind limb; [2]) | Pressure Decrease (perfused dog hind limb; [3]) | beta-adrenergic blocking activity (in words) (adrenergic beta-receptor) | antispasmodic activity (in words) (rabbit thoracic aorta) | anti-alpha-adrenergic activity (in words) (alpha-adrenergic) |
| --- | --- | --- | --- | --- | --- | --- | --- | --- | --- | --- | --- | --- | --- | --- |
| < 0.001 | CCCCCCCCNCC(O)COc1ccc(SC)cc1 (stereo not shown) [Example 1, 1-[4-(Methylthio)phenoxy]-3-(octylamino)-2-propanol] | -22 Millimeters of mercury | -59 Millimeters of mercury | 69 Microgram/0.5 ml. plateletrich human plasma | 42 Microgram/0.5 ml. plateletrich human plasma | – | – | – | – | – | – | – | – | – |
| < 0.0006 | CC(C)Sc1ccc(OCC(O)CNCCC2CCCCC2)cc1 (stereo not shown) [Example 5, 1-[(2-cyclohexylethyl)amino]-3-[4-[(1-methylethyl)thio]phenoxy]-2-propanolhydrochloride] | -63 Millimeters of mercury | -87 Millimeters of mercury | 56 Microgram/0.5 ml. plateletrich human plasma | 47 Microgram/0.5 ml. plateletrich human plasma | 2.4 | – | – | – | – | – | – | – | – |
| < 0.002 | CC(C)Sc1ccc(OCC(O)CNCCCCC2CCCCC2)cc1 (stereo not shown) [Example 6, 1-[(4-cyclohexylbutyl)amino]-3-[4-[(1-methylethyl)thio]phenoxy]-2-propanolhydrochloride] | -47 Millimeters of mercury | -74 Millimeters of mercury | 53 Microgram/0.5 ml. plateletrich human plasma | 29 Microgram/0.5 ml. plateletrich human plasma | 0.02 | about 1/2 | – | – | – | – | – | – | – |
| < 0.0006 | CCCCCCCCNCC(O)COc1ccc(SC)cc1C (stereo not shown) [Example 7, 1-[2-methyl-4-(methylthio)phenoxy]-3-(octylamino)-2-propanol] | -56 Millimeters of mercury | -80 Millimeters of mercury | 82 Microgram/0.5 ml. plateletrich human plasma | 39 Microgram/0.5 ml. plateletrich human plasma | 0.8 | – | – | – | – | – | – | – | – |
| 0.2 | CSc1ccc(OCC(O)CNC(C)C)cc1 (stereo not shown) [Test agent B, 1-(isopropylamino)-3-[4-(methylthio)phenoxy]-2-propanol, reference compound] | – | – | 107 Microgram/0.5 ml. plateletrich human plasma | 28 Microgram/0.5 ml. plateletrich human plasma | 0.04 | – | – | 27-29 mm Hg | -3 Millimeters of mercury | -29 Millimeters of mercury | substantial activity | relatively weak activity | essentially inactive |

Further lines, the compound ahead of its results:

| Structure (SMILES) | Beta-Adrenergic Blocking Potency (adrenergic beta-receptor) | Pressure Decrease (perfused dog hind limb; infusion rate 0.3 mg./min.) | Pressure Decrease (perfused dog hind limb; infusion rate 1.0 mg./min.) | ED50 ADP (inhibition of platelet aggregation) [1] | ED50 Coll (inhibition of platelet aggregation) [1] | Antispasmodic Potency (rabbit thoracic aorta) | antispasmodic potency relative to prior art compounds A and B (rabbit thoracic aorta) | anti-alpha-adrenergic activity relative to phentolamine (alpha-adrenergic) | pressure reduction (findings, range over compounds) (perfused dog hind limb) | Pressure Decrease (perfused dog hind limb; [2]) | Pressure Decrease (perfused dog hind limb; [3]) | beta-adrenergic blocking activity (in words) (adrenergic beta-receptor) | antispasmodic activity (in words) (rabbit thoracic aorta) | anti-alpha-adrenergic activity (in words) (alpha-adrenergic) |
| --- | --- | --- | --- | --- | --- | --- | --- | --- | --- | --- | --- | --- | --- | --- |
| CCCCCCCCNCC(O)COc1cccc(SC(C)C)c1.Cl (stereo not shown) [Example 3, 1-[3-[(1-Methylethyl)thio]phenoxy]-3-(octylamino)-2-propanol Hydrochloride] | < 0.001 | -20 Millimeters of mercury | -87 Millimeters of mercury | 53 Microgram/0.5 ml. plateletrich human plasma | 24 Microgram/0.5 ml. plateletrich human plasma | 0.7 | – | – | – | – | – | – | – | – |
| CCCCCCCCCCCCNCC(O)COc1ccc(SC(C)C)cc1.Cl (stereo not shown) [Example 4, 1-[4-[(1-Methylethyl)thio]phenoxy]-3-(dodecylamino)-2-Propanol Hydrochloride] | < 0.001 | – | – | – | – | 0.08 | twice as potent | – | – | – | – | – | – | – |
| CCCCCCCCNCC(O)COc1ccccc1SC.Cl (stereo not shown) [Example 8, 1-[2-(Methylthio)phenoxy]-3-(octylamino)-2-propanol Hydrochloride] | 0.004 | -15 Millimeters of mercury | -64 Millimeters of mercury | 65 Microgram/0.5 ml. plateletrich human plasma | 32 Microgram/0.5 ml. plateletrich human plasma | 2.6 | – | 1-2% | – | – | – | – | – | – |
| COc1ccc(Cc2nccc3cc(OC)c(OC)cc23)cc1OC [Papaverine, reference compound] | – | -31 Millimeters of mercury | – | – | – | – | – | – | – | – | – | – | – | – |
| CSc1ccccc1OCC(O)CNC(C)C (stereo not shown) [Test agent A, 1-(isopropylamino)-3-[2-(methylthio)phenoxy]-2-propanol, reference compound] | 1.0 | – | – | 137 Microgram/0.5 ml. plateletrich human plasma | 33 Microgram/0.5 ml. plateletrich human plasma | 0.04 | – | 1-2% | 27-29 mm Hg | -20 Millimeters of mercury | -27 Millimeters of mercury | substantial activity | relatively weak activity | – |
